Structures are written as SMILES. Values after ≈ are worked out from the molar mass of the structure shown. Active and inactive are the calls of the source. No cut-off for these calls is given here.

Data set [1] can be described thus: Inhibition of bacterial NDM-1 using CDC-1 as substrate incubated for 30 mins. Details: species or system Bacteria.
The nature of data set [2]: Inhibition of bacterial IMP-1 using CDC-1 as substrate incubated for 30 mins. The arrangement: species or system Bacteria.
The nature of data set [3]: Inhibition of bacterial VIM-27 using CDC-1 as substrate incubated for 30 mins. Details: species or system Bacteria.
Data set [4] has as its system Escherichia coli. Briefly: Antibacterial activity against Escherichia coli expressing NDM-1 measured by broth microdilution method. The class given is functional. A general note: Broth dilution looks for growth in wells or tubes with falling amounts of substance.
Data set [5] is described as follows: Inhibition of bacterial NDM-3 using CDC-1 as substrate incubated for 30 mins. Details: species or system Bacteria.
A short description of data set [6]: Inhibition of bacterial NDM-4 using CDC-1 as substrate incubated for 30 mins. The arrangement: species or system Bacteria.
A short description of data set [7]: Inhibition of bacterial NDM-12 using CDC-1 as substrate incubated for 30 mins. Details: species or system Bacteria.
Data set [8] is described as follows: Inhibition of bacterial NDM-13 using CDC-1 as substrate incubated for 30 mins. Details: species or system Bacteria.
A short description of data set [9]: Competitive inhibition of bacterial NDM-1 using CDC-1 as substrate and measured by Dixon plot analysis. Details: species or system Bacteria.
Data set [10] concerns HEK293. Briefly: Cytotoxicity against human HEK293 cells at 1 to 100 uM and measured by MTT assay. The class given is toxicity, cell-based. Particulars: hek293, 100 µM, dose 1-100 µM.
The test system of data set [11] is HEK293. Nature of the data set: Cytotoxicity against human HEK293 cells at 50 uM and measured by Calcien AM staining method. The data set is classed as toxicity, cell-based. The settings on record: hek293, 50 µM.
For data set [12], the system named is HEK293. Briefly: Cytotoxicity against human HEK293 cells at 50 uM and measured by propidium iodide (PI) staining method. The settings on record: hek293, 50 µM. The data set is classed as toxicity, cell-based.
Data set [13] relates to Escherichia coli. Briefly: Potentiation of meropenem-induced antibacterial activity against Escherichia coli expressing NDM-1 at 0.25 ug/ml assessed as meropenem MIC by broth microdilution method. The data set is classed as functional. The settings on record: dose 0.25 µg/ml.
Data set [14] concerns Escherichia coli. Nature of the data set: Potentiation of meropenem-induced antibacterial activity against Escherichia coli expressing NDM-1 at 8 ug/ml assessed as meropenem MIC by broth microdilution method. The settings on record: dose 8 µg/ml. The data set is classed as functional.
Data set [15] deals with Bacteria. Nature of the data set: Reversible inhibition of bacterial NDM-1 at 10 uM incubated for 30 mins.

For orientation: IC50 means the point on the concentration scale where inhibition reaches its midpoint. As to `CO[C@H]1C(=O)N2C(C(=O)O)=C(CSc3nnnn3C)CS[C@H]12`, the IC50 in [1] stood at 0.63 µM; in data set [2], 20 µM; in data set [3], 5.5 µM.

In [1], `O=C(O)CN(CCN(CC(=O)O)CC(=O)O)CC(=O)O` [EDETIC ACID] had an IC50 of 0.54 µM.

In data set [1], `O=C(O)C1=C(CSC(=O)c2ccccc2)CS[C@@H]2CC(=O)N12` had an IC50 greater than 50 µM.

Consider `CO[C@H]1C(=O)N2C(C(=O)O)=C(CSc3nncs3)CS[C@H]12`, for which the results for the IC50 in [1], in [2] and in data set [3] were 1.6 µM, 15 µM and 8.1 µM, respectively.

The compound `CO[C@H]1C(=O)N2C(C(=O)O)=C(COC(C)=O)CS[C@H]12` had a concentration for half-maximal inhibition (IC50) in data set [1] of 0.99 µM.

In [1], `O=C(Cc1ccccc1)N[C@@H]1C(=O)N2C(C(=O)O)=C(CSC(=O)c3ccccc3)CS[C@H]12` had an IC50 of 9.4 µM.

Regarding `O=C(O)C1=C(CSC(=O)c2ccccc2)CS[C@@H]2[C@@H](O)C(=O)N12`, the half-inhibitory concentration (IC50) in [1] turned out to be 0.46 µM.

For `CCS[C@H]1C(=O)N2C(C(=O)O)=C(CSC(=O)c3ccccc3)CS[C@H]12`, the figures for the IC50 in [1], in data set [2] and in [3] were 0.31 µM, 0.8 µM and 5.2 µM, respectively.

For `O=C(Cc1ccccc1)N[C@H]1C(=O)N2C(C(=O)O)=C(CSC(=O)c3ccccc3)CS[C@H]12`, the IC50 in data set [1] was found to be 0.22 µM.

Consider `CC(C)O[C@H]1C(=O)N2C(C(=O)O)=C(CSC(=O)c3ccccc3)CS[C@H]12`, for which, in data set [1], the IC50 is 1.4 µM.

In [1], `CCSCC1=C(C(=O)O)N2C(=O)[C@H](OC)[C@H]2SC1` came in with a 50% inhibitory concentration (IC50) of 1.2 µM.

Regarding `CO[C@H]1C(=O)N2C(C(=O)O)=C(CSc3ccccc3)CS[C@H]12`, the IC50 in [1] is 2 µM; in [2] it was 7.4 µM; in data set [3], 8.1 µM.

The MIC is the lowest concentration that inhibits growth of the organism. For the compound `C[C@@H](O)[C@H]1C(=O)N2C(C(=O)O)=C(S[C@@H]3CN[C@H](C(=O)N(C)C)C3)[C@H](C)[C@H]12` [MEROPENEM], the minimum inhibitory concentration (MIC) in data set [4] came out at 0.031 µg/mL (≈ 0.0808 µM).

Turning to `CCO[C@H]1C(=O)N2C(C(=O)O)=C(CSC(=O)c3ccccc3)CS[C@H]12`, the concentration for half-maximal inhibition (IC50) in data set [1] amounted to 7.4 µM; in data set [2], 4.6 µM; in data set [3] it was 3.6 µM.

Regarding `CO[C@H]1C(=O)N2C(C(=O)O)=C(CSc3nc4ccc([N+](=O)[O-])cc4s3)CS[C@H]12`, the results for the half-maximal inhibitory concentration (IC50) in [1], in data set [2] and in [3] were 0.76 µM, 15 µM and 1 µM, respectively.

As to `CO[C@H]1C(=O)N2C(C(=O)O)=C(CSC(=O)c3ccccc3)CS(=O)(=O)[C@H]12`, the IC50 in data set [1] is greater than 50 µM.

Compound `CCOC(=O)CSCC1=C(C(=O)O)N2C(=O)[C@H](OC)[C@H]2SC1` yielded an IC50 in [1] of 0.62 µM.

Regarding `CO[C@@]1(NC(=O)Cc2ccccc2)C(=O)N2C(C(=O)O)=C(CSC(=O)c3ccccc3)CS[C@@H]21`, the midpoint of inhibition in [1], the IC50, lay at 9.6 µM.

Regarding `CO[C@H]1C(=O)N2C(C(=O)O)=C(CSc3ncccn3)CS[C@H]12`, the values for the IC50 in [1], in data set [2] and in [3] were 0.63 µM, 8.8 µM and 8.6 µM, respectively.

With `CO[C@H]1C(=O)N2C(C(=O)O)=C(CSc3ccc(C(F)(F)F)cc3)CS[C@H]12`, the IC50 in data set [1] was determined as 0.5 µM; in data set [2], 5.5 µM; in [3] it was 7.3 µM.

Turning to `CO[C@H]1C(=O)N2C(C(=O)O)=C(CSc3ccc(NC(C)=O)cc3)CS[C@H]12`, the figures for the IC50 in data set [1], in [2] and in data set [3] were 0.2 µM, 8.4 µM and 5.8 µM, respectively.

`CO[C@H]1C(=O)N2C(C(=O)O)=C(CSC(=O)c3ccccc3)C[S+]([O-])[C@H]12` (stereo not given in full) showed an IC50 in data set [1] of 0.25 µM.

The compound `CO[C@H]1C(=O)N2C(C(=O)O)=C(C)CS[C@H]12` displayed a half-inhibitory concentration (IC50) in data set [1] greater than 50 µM.

Turning to `CO[C@H]1C(=O)N2C(C(=O)O)=C(CSc3nnc(C)s3)CS[C@H]12`, the 50% inhibitory concentration (IC50) in data set [1] was determined as 0.55 µM; in data set [2], 16 µM; in data set [3] it was 13 µM.

Usually Ki stands for the equilibrium dissociation constant of an inhibitor or competing ligand from its target. For the compound `CO[C@H]1C(=O)N2C(C(=O)O)=C(CSc3nc4ccccc4s3)CS[C@H]12`, the IC50 in [1] stood at 0.13 µM; in [2], 8 µM; in data set [3], 6 µM; in data set [5], 0.19 µM; in [6], 0.21 µM; in data set [7] it was 0.2 µM. This compound registered an IC50 in [8] of 0.16 µM. In [9], this compound registered a Ki of 0.21 µM. The Activity entry in [10], in data set [11] and in data set [12] was “Non-Toxic” each time. Further, the MIC in data set [13] was 32 µg/mL; in [14] it was 16 µg/mL. Also, the inhibition result in [15] is “Active”.

With `CO[C@H]1C(=O)N2C(C(=O)O)=C(CSC(=O)c3ccccc3)CS[C@H]12`, the results for the 50% inhibitory concentration (IC50) in data set [1], in [2] and in [3] were greater than 50 µM, 7.9 µM and 9.1 µM, respectively.

For the compound `CO[C@H]1C(=O)N2C(C(=O)O)=C(C[Se]c3ccccc3)CS[C@H]12`, the IC50 stood at 0.19 µM in data set [1], 6.6 µM in data set [2] and 6 µM in [3].

In the case of `O=C(O)C1=C(CSc2nc3ccccc3s2)CS[C@@H]2CC(=O)N12`, in data set [1], the IC50 was greater than 50 µM.
